{"source": "PubChem BioAssay (NCI)", "assay_in_all_cases": "NCI tumour cell line growth inhibition, 48 h", "key": {"[1]": {"tested_on": "SR leukemia"}, "[2]": {"tested_on": "OVCAR-4 ovarian"}, "[3]": {"tested_on": "UACC-257 melanoma"}, "[4]": {"tested_on": "HOP-62 NSCLC"}, "[5]": {"tested_on": "MDA-MB-435"}, "[6]": {"tested_on": "RXF 393 renal"}, "[7]": {"tested_on": "NCI/ADR-RES ovarian"}, "[8]": {"tested_on": "A498 renal"}, "[9]": {"tested_on": "SNB-75 CNS"}, "[10]": {"tested_on": "KM12 colon"}, "[11]": {"tested_on": "SN12C renal"}, "[12]": {"tested_on": "MOLT-4 leukemia"}, "[13]": {"tested_on": "COLO 205 colon"}, "[14]": {"tested_on": "CAKI-1 renal"}, "[15]": {"tested_on": "SF-539 CNS"}, "[16]": {"tested_on": "HCC-2998 colon"}, "[17]": {"tested_on": "M14 melanoma"}, "[18]": {"tested_on": "HOP-92 NSCLC"}, "[19]": {"tested_on": "786-0 renal"}, "[20]": {"tested_on": "MALME-3M melanoma"}, "[21]": {"tested_on": "HT29 colon"}, "[22]": {"tested_on": "A549 NSCLC"}, "[23]": {"tested_on": "UACC-62 melanoma"}, "[24]": {"tested_on": "BT-549 breast"}, "[25]": {"tested_on": "U251 CNS"}, "[26]": {"tested_on": "SNB-19 CNS"}, "[27]": {"tested_on": "HCT-15 colon"}, "[28]": {"tested_on": "MDA-N"}, "[29]": {"tested_on": "NCI-H23 lung"}, "[30]": {"tested_on": "NCI-H460 lung"}, "[31]": {"tested_on": "UO-31 renal"}, "[32]": {"tested_on": "SK-OV-3 ovarian"}, "[33]": {"tested_on": "LOX IMVI melanoma"}, "[34]": {"tested_on": "SK-MEL-5 melanoma"}, "[35]": {"tested_on": "HCT-116 colon"}, "[36]": {"tested_on": "SK-MEL-2 melanoma"}, "[37]": {"tested_on": "OVCAR-5 ovarian"}, "[38]": {"tested_on": "MDA-MB-231 breast"}, "[39]": {"tested_on": "ACHN renal"}, "[40]": {"tested_on": "SW-620 colon"}, "[41]": {"tested_on": "NCI-H226 lung"}, "[42]": {"tested_on": "NCI-H522 lung"}, "[43]": {"tested_on": "PC-3 prostate"}, "[44]": {"tested_on": "MCF7 breast"}, "[45]": {"tested_on": "SF-295 CNS"}, "[46]": {"tested_on": "HS 578T breast"}, "[47]": {"tested_on": "TK-10 renal"}, "[48]": {"tested_on": "CCRF-CEM leukemia"}, "[49]": {"tested_on": "OVCAR-3 ovarian"}, "[50]": {"tested_on": "IGROV1 ovarian"}, "[51]": {"tested_on": "T-47D breast"}, "[52]": {"tested_on": "EKVX NSCLC"}, "[53]": {"tested_on": "OVCAR-8 ovarian"}, "[54]": {"tested_on": "SK-MEL-28 melanoma"}, "[55]": {"tested_on": "HL-60(TB) leukemia"}, "[56]": {"tested_on": "SF-268 CNS"}, "[57]": {"tested_on": "DU-145 prostate"}, "[58]": {"tested_on": "K-562 leukemia"}, "[59]": {"tested_on": "RPMI-8226 leukemia"}}, "note": "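Assay format: 96-well plates, 48-hour exposure. GI50: concentration for 50% inhibition of growth. TGI marks complete inhibition of growth.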"}
{"smiles": "O=C1OC(c2ccc(O)c(Cl)c2)(c2ccc(O)c(Cl)c2)c2ccc(Br)c3cccc1c23", "note": "(tested in a mixture with another compound)", "values": [{"measurement": "TGI", "setting": "[1]", "value": 45.4, "unit": "µM"}, {"measurement": "TGI", "setting": "[2]", "value": 11.6, "unit": "µM"}, {"measurement": "TGI", "setting": "[3]", "value": 34.8, "unit": "µM"}, {"measurement": "TGI", "setting": "[4]", "value": 40.3, "unit": "µM"}, {"measurement": "TGI", "setting": "[5]", "value": 34.3, "unit": "µM"}, {"measurement": "TGI", "setting": "[6]", "value": 32.5, "unit": "µM"}, {"measurement": "TGI", "setting": "[7]", "value": 32.5, "unit": "µM"}, {"measurement": "TGI", "setting": "[8]", "value": 31.7, "unit": "µM"}, {"measurement": "TGI", "setting": "[9]", "value": 37.8, "unit": "µM"}, {"measurement": "TGI", "setting": "[10]", "value": 42.2, "unit": "µM"}, {"measurement": "TGI", "setting": "[11]", "value": 32, "unit": "µM"}, {"measurement": "TGI", "setting": "[12]", "value": 41.8, "unit": "µM"}, {"measurement": "TGI", "setting": "[13]", "value": 23.1, "unit": "µM"}, {"measurement": "TGI", "setting": "[14]", "value": 29.2, "unit": "µM"}, {"measurement": "TGI", "setting": "[15]", "value": 32.4, "unit": "µM"}, {"measurement": "TGI", "setting": "[16]", "value": 35, "unit": "µM"}, {"measurement": "TGI", "setting": "[17]", "value": 49.6, "unit": "µM"}, {"measurement": "TGI", "setting": "[18]", "value": 26.1, "unit": "µM"}, {"measurement": "TGI", "setting": "[19]", "value": 35.8, "unit": "µM"}, {"measurement": "TGI", "setting": "[20]", "value": 39.3, "unit": "µM"}, {"measurement": "TGI", "setting": "[21]", "value": 29.3, "unit": "µM"}, {"measurement": "TGI", "setting": "[22]", "value": 38.9, "unit": "µM"}, {"measurement": "TGI", "setting": "[23]", "value": 26.1, "unit": "µM"}, {"measurement": "TGI", "setting": "[24]", "value": 18.6, "unit": "µM"}, {"measurement": "TGI", "setting": "[25]", "value": 38.2, "unit": "µM"}, {"measurement": "TGI", "setting": "[26]", "value": 44.4, "unit": "µM"}, {"measurement": "TGI", "setting": "[27]", "value": 44, "unit": "µM"}, {"measurement": "TGI", "setting": "[28]", "value": 45.9, "unit": "µM"}, {"measurement": "TGI", "setting": "[29]", "value": 34.8, "unit": "µM"}, {"measurement": "TGI", "setting": "[30]", "value": 34.7, "unit": "µM"}, {"measurement": "TGI", "setting": "[31]", "value": 33.4, "unit": "µM"}, {"measurement": "TGI", "setting": "[32]", "value": 32.2, "unit": "µM"}, {"measurement": "TGI", "setting": "[33]", "value": 40.3, "unit": "µM"}, {"measurement": "TGI", "setting": "[34]", "value": 31.3, "unit": "µM"}, {"measurement": "TGI", "setting": "[35]", "value": 36.3, "unit": "µM"}, {"measurement": "TGI", "setting": "[36]", "value": 42.1, "unit": "µM"}, {"measurement": "TGI", "setting": "[37]", "value": 34.5, "unit": "µM"}, {"measurement": "TGI", "setting": "[38]", "value": 29.4, "unit": "µM"}, {"measurement": "GI50", "setting": "[39]", "value": 13.9, "unit": "µM"}, {"measurement": "TGI", "setting": "[39]", "value": 27.2, "unit": "µM"}, {"measurement": "TGI", "setting": "[40]", "value": 41.1, "unit": "µM"}, {"measurement": "TGI", "setting": "[41]", "value": 41.1, "unit": "µM"}, {"measurement": "GI50", "setting": "[42]", "value": 17.8, "unit": "µM"}, {"measurement": "TGI", "setting": "[42]", "value": 35.7, "unit": "µM"}, {"measurement": "TGI", "setting": "[43]", "value": 28.8, "unit": "µM"}, {"measurement": "TGI", "setting": "[44]", "value": 30.6, "unit": "µM"}, {"measurement": "TGI", "setting": "[45]", "value": 36.6, "unit": "µM"}, {"measurement": "TGI", "setting": "[46]", "value": "> 53.1", "unit": "µM"}, {"measurement": "TGI", "setting": "[47]", "value": 37, "unit": "µM"}, {"measurement": "TGI", "setting": "[48]", "value": 42.3, "unit": "µM"}, {"measurement": "TGI", "setting": "[49]", "value": 21.8, "unit": "µM"}, {"measurement": "TGI", "setting": "[50]", "value": 44.5, "unit": "µM"}, {"measurement": "TGI", "setting": "[51]", "value": 13.3, "unit": "µM"}, {"measurement": "TGI", "setting": "[52]", "value": 29.3, "unit": "µM"}, {"measurement": "TGI", "setting": "[53]", "value": 51.9, "unit": "µM"}, {"measurement": "TGI", "setting": "[54]", "value": 36, "unit": "µM"}, {"measurement": "GI50", "setting": "[55]", "value": 17.5, "unit": "µM"}, {"measurement": "TGI", "setting": "[55]", "value": 41.8, "unit": "µM"}, {"measurement": "TGI", "setting": "[56]", "value": 31.3, "unit": "µM"}, {"measurement": "TGI", "setting": "[57]", "value": 46.8, "unit": "µM"}, {"measurement": "TGI", "setting": "[58]", "value": 46.2, "unit": "µM"}, {"measurement": "TGI", "setting": "[59]", "value": 44.5, "unit": "µM"}]}
